This is an account of results in US20230018737A1, “AN IN VITRO KIT AND A METHOD FOR D[…] TRANSPLANTS AND/OR AUTOIMMUNE DISEASES AND/OR TUMOR DISEASES AND/OR VA[…] A MESSENGER-SUBSTANCE-CONTAINING SUPERNATANT, CELL-[…], AND A COMBINATION, FOR USE IN D[…] TRANSPLANTS AND/OR AUTOIMMUNE DISEASES AND/OR TUMOR DISEASES AND/OR VACCINATIONS” (HOT Screen GmbH, priority 2019, published 2023).

One experiment relates to T cells. It is filed as cell-based, human.
In the next experiment the test system is whole blood cultures. It is filed as cell-based, human.

“And” between values parts separate entries of the source, which are not always exact repeats. Equal values may be shown once.

For tetanus toxoid [TeTo], in the experiment with T cells, the IL-2 is given as 12.1 pg/mL, the “IL-2 Conc” value is 12.1 pg/mL and the “IL-2 SI (stimulation index)” value came to 314. Also, in the experiment with whole blood cultures, the IL-10 is 8.47 pg/mL and 8.24 pg/mL.
